Data as given in patent US20250041437A1, “HUMANIZED MUC1 ANTIBODY AND ANTIBODY DRUG CONJUGATE” (Sun Pharma Advanced Research Company Limited, priority 2023, published 2025).
Where a SMILES comes first, the peptide text is derived from it. [ ]: non-standard residue; d: D form. The star is where a group is joined. Dolaproine = CO[C@@H]([C@@H]1CCCN1)[C@@H](C)C(=O)O; Dil = CC[C@H](C)[C@H](NC)[C@@H](CC(=O)O)OC; X1 = C[C@@H](N*)[C@@H](O)c1ccccc1; NMeV = CN[C@H](C(=O)O)C(C)C

Assays:
[1] = tested on: T47D breast carcinoma cells; test: Growth inhibition of human cancer cell lines, T47D; assay type: cell-based; conditions: free MMAE
[2] = Single dose pharmacokinetics, COLO357 tumor bearing mouse, IV; assay type: in vivo
Description: The objective of this study was to evaluate serum, tumor and liver pharmacokinetics of TAB, CAB and uMMAE following 3 mg/kg single IV administration of M5LM4-ADC and pharmacokinetics of MMAE following 0.06 mg/kg single IV administration of MMAE alone in a COLO357 tumor bearing mouse model.
The blood samples were collected from the mouse at 0.083, 0.5, 1, 2, 4, 8, 24, 48, 72, 96, 168 and 336 hours post-dose (n=3 mice/time point; sparse sampling design) through retro-orbital plexuses and serum was immediately harvested. At 24, 48, 72, 96, 168 and 336 hour time-points, the tumor and liver were collected. Analysis of total antibody (TAB) and conjugated antibody (CAB) was done by a fit for purpose ELISA based method and analysis of free payload (MMAE) was done by a fit for purpose LC-MS/MS based method. Pharmacokinetic analysis was performed by the non-compartmental analysis tool of Phoenix WinNonlin® software.

SKOV3 derived xenograft = conditions: mouse, in vivo
MCF7 derived xenograft = conditions: mouse, in vivo
[3] = tested on: BxPC3 pancreatic carcinoma cells; test: Growth inhibition of human cancer cell lines, BxPC3; conditions: read-out: MMAE IC50; BxPC3, free MMAE
[4] = tested on: COLO-357 pancreatic carcinoma cells; test: Growth inhibition of human cancer cell lines, COLO-357; conditions: read-out: MMAE IC50; COLO-357, free MMAE
[5] = MMAE, MMAE 0.06 mg/kg IV, liver
[6] = MMAE, MMAE 0.06 mg/kg IV, serum
[7] = MMAE, MMAE 0.06 mg/kg IV, tumor
[8] = single IV MMAE, COLO357 tumor bearing mice

Work on `CC[C@H](C)[C@@H]([C@@H](CC(=O)N1CCC[C@H]1[C@H](OC)[C@@H](C)C(=O)N[C@H](C)[C@@H](O)c1ccccc1)OC)N(C)C(=O)[C@@H](NC(=O)[C@@H](NC)C(C)C)C(C)C` [Free MMAE, monomethyl auristatin E, reference compound] (H-[NMeV]V[Dil][Dolaproine]-X1) yielded an IC50 [1] of 70 pM, an AUC0-336 [2, 5] of 0.19 µM·h and a Cmax [2, 5] of 1.5 nM. It also gave a T1/2 [2, 5] of 182 h, an AUC0-24 [2, 6] of 0.018 µM·h and an AUC0-336 [2, 6] of 0.021 µM·h. The AUCINF [2, 6] was 0.021 µM·h, the CL [2, 6] was 64 mL/min/kg and the Cmax [2, 6] was 8 nM. It also gave a T1/2 [2, 6] of 5 h, a Tmax [2, 6] of 4.8 min and a Vss [2, 6] of 34 L/kg. The AUC0-336 [2, 7] was 1.391 µM·h, the “AUC ratio (Kp)” value [2, 7] was 66 and the Cmax [2, 7] was 11 nM. The T1/2 [2, 7] was 154 h, the “tumor exposure higher than in serum” value [2, 8] was 66 fold and the “tumor exposure higher than in the liver” value [2, 8] was 7 fold. The mortality (SKOV3 derived xenograft) was 3 of 8, the “tumor growth inhibition (TGI)” value (SKOV3 derived xenograft) was 106±10% and the mortality (MCF7 derived xenograft) was 3 of 8. For the same compound, the IC50 [3] was 20 pM and the IC50 [4] was 160 pM.
